Results on three compounds are retold here after patent publication US11648223B2, “Receptor subtype and function selective retinoid and rexinoid compounds in combination with immune modulators for cancer immunotherapy” (Io Therapeutics, Inc., priority 2016, dated 2023).

Series [1] relates to Treg cell. Description: in vitro Treg cell differentiation from naive CD4+ T cells (FoxP3-GFP, flow cytometry). It counts as cell-based, mouse. The following applies: in vitro assay. Here is the method: (§1) To determine whether a RARα selective agonist could affect T cell differentiation, T cells were incubated with a RARα selective agonist to determine its effect on Foxp3 expression. Naive CD4^+ […] cells were purified from a Foxp3-GFP mouse using flow cytometry by sorting and isolating based upon a GFP^+ phenotype. These cells were activated polyclonally with αCD3 in vitro in the presence of IL-2 and TGF-β. These cells were then cultured in media with various concentrations of compound 5183 (a RARα selective agonist) and the expression of FoxP3-GFP was analyzed by flow cytometry. The RARα selective agonist compound 5183 enhanced differentiation of immunosuppressive Treg cells and inhibited differentiation of inflammatory TH17 cells from naëve T cells in vitro (Table 2).
In general terms: A flow cytometer gives signals particle by particle.

Series [2] has as its system Th17 cell. The series is described as follows: in vitro Th17 cell differentiation from naive T cells. It counts as cell-based, mouse. Conditions: in vitro assay. Here is the method:
as §1

For series [3], the system named is CD4+ T cells. The series is described as follows: in vivo T cell differentiation in mice (FoxP3 expression in CD4+ T cells of blood and spleen). The arrangement: species or system mouse. Conditions: in vivo assay. The protocol: To expand on the finding above, the in vivo effects of a RARα selective agonist on T cell differentiation was evaluated in a mouse model. Mice were treated with 100 μg of compound 5183 (a RARα agonist) or an equivalent volume of DMSO (vehicle control) every other day for 10 days. Lympocytes from the blood and spleen were then isolated and FoxP3 expression in CD4^+ T cells was assessed.

In series [4] the test system is FoxP3+ Treg cells. The series is described as follows: formation of FoxP3+ Treg cells (FIG. 3). It counts as cell-based.
In series [5] the test system is Th 17 cells. The series is described as follows: formation of Th17 cells (FIG. 3). It counts as cell-based.
Series [6] has as its system B16F10 tumor cells. Description: B16F10 melanoma engrafted C57BL/6 mice, survival. It is filed as in vivo. The protocol: The anti-tumor effects of anti-CTLA-4 antibody treatment combined with 10 nM […] agonist (AGN204647 (IRX4647)) are examined in C57BL/6 mice engrafted with B16F10 tumor cells.
Where [7] appears, read: combination with anti-CTLA-4 antibody.

Consider `CCOc1c(Br)cc(C(=O)Nc2ccc(C(=O)O)cc2)cc1C(=O)c1ccc(C)cc1` [AGN196996], for which the Treg cell numbers result in series [1] and in series [3] was “decreases Treg cell numbers” in each case. Also, the Th17 cell numbers entry in series [2] and in series [3] was “increases Th17 cell numbers” each time.
On to `CC(/C=C/[C@@H]1C[C@]1(C)c1ccc2c(c1)C(C)(C)CCC2(C)C)=C\C(=O)O` [IRX4204], for which the “formation of FoxP3+ Treg cells” value in series [4] was “promotes the formation of FoxP3+ Treg cells”. The “formation of Th 17 cells” value in series [5] was “inhibits the formation of Th 17 cells”.
On to `CC1(C)CCC(C)(C)c2cc(C(/C=C/c3cccc(C(=O)O)c3)=N/O)ccc21` [AGN204647], for which the “survival rate at 50 days” value in series [6] (agent alone, vehicles only 0%) was determined as 30%. In series [6] (combination of anti-CTLA-4 antibody and 10 nM RARγ agonist AGN204647), the “survival at 50 days” value was 100%. Further, in series [6] (setting [7]), the “resistance of surviving mice to tumor re-challenge” value is reported as “resistant to re-challenge with twice the dose of live tumor cells” and the toxicity entry is listed as “without signs of acute or delayed toxicity”.
